{"source": "patent US12447149B2", "about": "“Formulations of vimseltinib” (Deciphera Pharmaceuticals, LLC, priority 2023, dated 2025)", "format_in_all_cases": "physicochemical", "key": {"[1]": {"assay": "Particle size distribution (PSD) of crystalline dihydrate form and seeds, DMAC-water crystallization", "details": "milled seeds of crystalline dihydrate form used in DMAC-water crystallization"}, "[2]": {"assay": "Particle size analysis by laser diffraction (Malvern Mastersizer 3000, wet dispersion)", "details": "volume distribution", "description": "Particle size analysis of dihydrate vimseltinib drug substance samples was determined by laser diffraction using a Malvern Mastersizer 3000 instrument in a wet dispersion mode.\nPrior to analysis, dihydrate drug substance samples were rotated and inverted in the sample container at least 10 times to ensure homogeneity. Between 20 and 25 mg of sample was weighed into a Malvern Glass tube. 20 mL of the Dispersant Solution (0.1% Span 85 in Isoparaffin G) was added and vortexed until a homogeneous suspension was obtained (˜30 s). The sample was then placed in a Vibra-Cell ultrasonic processor. The amplitude was set to the target of 30% (4 Watts) using an external probe (Vibra-Cell) during 90 sec.\nAfter background measurement, the sample dispersion was slowly added to the dispersion unit of the instrument to achieve an obscuration level target of 5%. The sample was stirred at 3250 rpm for at least 1 minute to ensure dispersion and stabilization of the sample. After stabilization, the measurement was started and performed using a Malvern Mastersizer 3000 according to the method conditions provided in Table 17."}, "[3]": {"assay": "Static storage stability of crystalline dihydrate and anhydrous forms (XRPD, DSC, KF weekly for four weeks)", "details": "all storage conditions (40° C./75% RH, 25° C./97% RH, 40° C./0% RH, 25° C./0% RH), after 4 weeks", "description": "The stability of crystalline dihydrate and anhydrous forms of the compound represented by Formula (I) at varying relative humidity (RH) and temperature was investigated.\nFor example, the stability of crystalline dihydrate and anhydrous forms of the compound represented by Formula (I), as prepared according to Example 1 and Example 2, respectively, was studied under other conditions by placing aliquots of each form in static storage at conditions of 40° C./75% RH, 25° C./97% RH, 40° C./0% RH and 25° C./0% RH and analyzing the aliquots once weekly for four weeks using XRPD, DSC, and KF."}, "[4]": {"assay": "Hydration experiment: slurry of crystalline anhydrous form in deionized water, heat-cool cycles", "details": "4-hour heat-cool cycles between 40° C. and room temperature for 72 hours", "description": "In a hydration experiment, a slurry of the crystalline anhydrous form of the compound represented by Formula (I) and deionized water was subjected to successive 4-hour heat-cool cycles between 40° C. and room temperature for 72 hours."}, "[5]": {"assay": "Hydration of crystalline anhydrous form in low water activity solvents (XRPD)", "details": "Ambient", "description": "The hydration of the crystalline anhydrous form was studied using aqueous solvent systems with low water activity of 0.1. Slurries of the crystalline anhydrous form in the respective solvent were agitated for 6 days at room temperature. Aliquots of isolated materials were analyzed after 24, 48, and 144 hours of agitation. Table 12 summarizes the experiment conditions and isolated crystalline forms, as determined by XRPD."}}}
{"smiles": "Cc1nc(-c2cnc(NC(C)C)n(C)c2=O)ccc1Oc1ccnc(-c2cnn(C)c2)c1.O.O", "note": "[Lot 2]", "values": [{"measurement": "Particle Size d10", "setting": "[1]; listed as 2", "value": 2, "unit": "microns"}, {"measurement": "Particle Size d50", "setting": "[1]; listed as 2", "value": 6, "unit": "microns"}, {"measurement": "Particle Size d90", "setting": "[1]; listed as 2", "value": 11, "unit": "microns"}, {"measurement": "D(10)", "setting": "[2]; listed as 2", "value": 6, "unit": "μm"}, {"measurement": "D(50)", "setting": "[2]; listed as 2", "value": 18, "unit": "μm"}, {"measurement": "D(90)", "setting": "[2]; listed as 2", "value": 37, "unit": "μm"}]}
{"smiles": "Cc1nc(-c2cnc(NC(C)C)n(C)c2=O)ccc1Oc1ccnc(-c2cnn(C)c2)c1.O.O", "note": "[Lot 3]", "values": [{"measurement": "Particle Size d10", "setting": "[1]; listed as 3", "value": 3, "unit": "microns"}, {"measurement": "Particle Size d50", "setting": "[1]; listed as 3", "value": 6, "unit": "microns"}, {"measurement": "Particle Size d90", "setting": "[1]; listed as 3", "value": 12, "unit": "microns"}, {"measurement": "D(10)", "setting": "[2]; listed as 3", "value": 6, "unit": "μm"}, {"measurement": "D(50)", "setting": "[2]; listed as 3", "value": 17, "unit": "μm"}, {"measurement": "D(90)", "setting": "[2]; listed as 3", "value": 33, "unit": "μm"}]}
{"smiles": "Cc1nc(-c2cnc(NC(C)C)n(C)c2=O)ccc1Oc1ccnc(-c2cnn(C)c2)c1", "note": "[crystalline anhydrous form]", "values": [{"measurement": "stability of the solid form on storage", "setting": "[3]", "value": "remained stable"}, {"measurement": "isolated solid form by XRPD", "setting": "[4]", "value": "crystalline dihydrate form"}, {"measurement": "Observed Forms", "setting": "[5]; Acetone/water (99:1), 24 h", "value": "Anhydrous"}, {"measurement": "Observed Forms", "setting": "[5]; Acetone/water (99:1), 144 h", "value": "Anhydrous"}, {"measurement": "Observed Forms", "setting": "[5]; MEK/water (99:1), 24 h", "value": "Anhydrous"}, {"measurement": "Observed Forms", "setting": "[5]; MEK/water (99:1), 144 h", "value": "Dihydrate"}]}
